Here are results for 1 molecule from paper PMC8757608 (Journal of Enzyme Inhibition and Medicinal Chemistry, 2022).

In one test the test system is K-562 (leukemia). Kind of test: NCI-60 single dose screen, K-562. In kind it is cell-based. As to conditions: Homo sapiens, K562, read-out: percent growth inhibition.
Another test has as its system HL60(TB) (leukemia). Kind of test: NCI-60 single dose screen, HL60. In kind it is cell-based. The settings on record: Homo sapiens, HL-60, read-out: percent growth inhibition.

Molecules are shown by their SMILES.

Regarding `Cc1cc(=O)[nH]c(=O)n1Cc1cn(-c2c3ccccc3nc3ccccc23)nn1` [Compound 8, 1-((1-(Acridin-9-yl)-1H-1,2,3-triazol-4-yl)methyl)-6-methylpyrimidine-2,4(1H,3H)-dione], the inhibition at 10 µM with K-562 (leukemia) is 83.7%; with HL60(TB) (leukemia), 92.9%.
